± gives the expanded uncertainty stated by the source.
CCn1cc[n+](C)c1.O=S(=O)([N-]S(=O)(=O)C(F)(F)F)C(F)(F)F
101.33 kPa, Liquid
Settings	mass density, Vibrating tube method [kg/m3]	viscosity, Falling or rolling sphere viscometry [mPa·s]
283.15 K	1531 ± 10	56.17 ± 2.3
293.15 K	1521 ± 10	37.23 ± 1.5
303.15 K	1510 ± 10	26.55 ± 1.1
313.15 K	1500 ± 10	19.6 ± 0.8
323.15 K	1491 ± 10	15.01 ± 0.62
333.15 K	1483 ± 10	11.84 ± 0.49
343.15 K	1474 ± 10	9.57 ± 0.39
353.15 K	1465 ± 10	7.9 ± 0.32
363.15 K	1455 ± 10	6.65 ± 0.27

C[N+](C)(C)CCO.O=S(=O)([N-]S(=O)(=O)C(F)(F)F)C(F)(F)F [choline bis(trifluoromethylsulfonyl)imide]
101.33 kPa
Settings	mass density [kg/m3]	viscosity [mPa·s]
293.15 K, Metastable liquid, Falling or rolling sphere viscometry	–	187.9 ± 11
293.15 K, Metastable liquid, Vibrating tube method	1539 ± 10	–
303.15 K, Metastable liquid, Falling or rolling sphere viscometry	–	111.5 ± 5.3
303.15 K, Metastable liquid, Vibrating tube method	1530 ± 10	–
313.15 K, Falling or rolling sphere viscometry, Liquid	–	71.05 ± 3
313.15 K, Vibrating tube method, Liquid	1520 ± 10	–
323.15 K, Falling or rolling sphere viscometry, Liquid	–	47.94 ± 2
323.15 K, Vibrating tube method, Liquid	1511 ± 10	–
333.15 K, Falling or rolling sphere viscometry, Liquid	–	34.09 ± 1.4
333.15 K, Vibrating tube method, Liquid	1504 ± 10	–
343.15 K, Falling or rolling sphere viscometry, Liquid	–	25.6 ± 1.1
343.15 K, Vibrating tube method, Liquid	1495 ± 10	–
353.15 K, Falling or rolling sphere viscometry, Liquid	–	19.61 ± 0.8
353.15 K, Vibrating tube method, Liquid	1486 ± 10	–
363.15 K, Falling or rolling sphere viscometry, Liquid	–	15.43 ± 0.63
363.15 K, Vibrating tube method, Liquid	1476 ± 10	–

CCCCn1cc[n+](C)c1.CCOS(=O)(=O)[O-] [1-butyl-3-methyl-1H-imidazolium ethyl sulfate]
101.33 kPa, Liquid
Settings	mass density, Vibrating tube method [kg/m3]	viscosity, Falling or rolling sphere viscometry [mPa·s]
283.15 K	1193 ± 10	672.1 ± 60
293.15 K	1186 ± 10	334 ± 24
303.15 K	1180 ± 10	181 ± 10
313.15 K	1173 ± 10	110.3 ± 5.2
323.15 K	1166 ± 10	70.37 ± 2.9
333.15 K	1160 ± 10	47.41 ± 1.9
343.15 K	1153 ± 10	33.67 ± 1.4
353.15 K	1146 ± 10	24.88 ± 1
363.15 K	1139 ± 10	19.11 ± 0.78

CCCCn1cc[n+](C)c1.F[P-](F)(F)(F)(F)F [1-butyl-3-methylimidazolium hexafluorophosphate]
101.33 kPa, Liquid
Settings	mass density, Vibrating tube method [kg/m3]	viscosity, Falling or rolling sphere viscometry [mPa·s]
283.15 K	1380 ± 10	779.5 ± 73
293.15 K	1372 ± 10	345.1 ± 25
303.15 K	1363 ± 10	185.1 ± 11
313.15 K	1354 ± 10	109.6 ± 5.2
323.15 K	1346 ± 10	69.7 ± 2.9
333.15 K	1339 ± 10	46.59 ± 1.9
343.15 K	1332 ± 10	32.67 ± 1.3
353.15 K	1323 ± 10	23.85 ± 0.98
363.15 K	1314 ± 10	18.03 ± 0.74

CCCC[n+]1ccn(C)c1.O=S(=O)([N-]S(=O)(=O)C(F)(F)F)C(F)(F)F
101.33 kPa, Liquid
Settings	mass density, Vibrating tube method [kg/m3]	viscosity, Falling or rolling sphere viscometry [mPa·s]
283.15 K	1448 ± 10	88.06 ± 3.9
293.15 K	1438 ± 10	54.17 ± 2.2
303.15 K	1428 ± 10	35.88 ± 1.5
313.15 K	1418 ± 10	25.32 ± 1
323.15 K	1408 ± 10	18.69 ± 0.77
333.15 K	1399 ± 10	14.34 ± 0.59
343.15 K	1390 ± 10	11.22 ± 0.46
353.15 K	1379 ± 10	8.99 ± 0.37
363.15 K	1370 ± 10	7.38 ± 0.3

CCCCn1cc[n+](C)c1.O=S(=O)([O-])C(F)(F)F [1-butyl-3-methylimidazolium trifluoromethanesulfonate]
101.33 kPa, Liquid
Settings	mass density, Vibrating tube method [kg/m3]	viscosity, Falling or rolling sphere viscometry [mPa·s]
283.15 K	1309 ± 10	183.3 ± 10
293.15 K	1301 ± 10	106.5 ± 5
303.15 K	1293 ± 10	66.58 ± 2.8
313.15 K	1285 ± 10	44.45 ± 1.8
323.15 K	1277 ± 10	31.17 ± 1.3
333.15 K	1270 ± 10	22.81 ± 0.94
343.15 K	1262 ± 10	17.24 ± 0.71
353.15 K	1254 ± 10	13.48 ± 0.55
363.15 K	1247 ± 10	10.73 ± 0.44

CCC[N+]1(C)CCCCC1.O=S(=O)([N-]S(=O)(=O)C(F)(F)F)C(F)(F)F
101.33 kPa
Settings	mass density [kg/m3]	viscosity [mPa·s]
283.15 K, Metastable liquid, Falling or rolling sphere viscometry	–	350.3 ± 25
283.15 K, Metastable liquid, Vibrating tube method	1422 ± 10	–
293.15 K, Falling or rolling sphere viscometry, Liquid	–	174.4 ± 9.8
293.15 K, Vibrating tube method, Liquid	1413 ± 10	–
303.15 K, Falling or rolling sphere viscometry, Liquid	–	99.68 ± 4.6
303.15 K, Vibrating tube method, Liquid	1404 ± 10	–
313.15 K, Falling or rolling sphere viscometry, Liquid	–	62.11 ± 2.6
313.15 K, Vibrating tube method, Liquid	1395 ± 10	–
323.15 K, Falling or rolling sphere viscometry, Liquid	–	40.78 ± 1.7
323.15 K, Vibrating tube method, Liquid	1386 ± 10	–
333.15 K, Falling or rolling sphere viscometry, Liquid	–	29.14 ± 1.2
333.15 K, Vibrating tube method, Liquid	1379 ± 10	–
343.15 K, Falling or rolling sphere viscometry, Liquid	–	21.36 ± 0.88
343.15 K, Vibrating tube method, Liquid	1371 ± 10	–
353.15 K, Falling or rolling sphere viscometry, Liquid	–	16.25 ± 0.67
353.15 K, Vibrating tube method, Liquid	1363 ± 10	–
363.15 K, Falling or rolling sphere viscometry, Liquid	–	12.75 ± 0.52
363.15 K, Vibrating tube method, Liquid	1353 ± 10	–

Source: the NIST ThermoML archive (doi:10.1016/j.jct.2017.08.032)
